Assays:
Assay in all cases: relative viability (nuclei count vs DMSO), 5 days (fraction); higher = more cells survive
[1] = compound: O=c1cc(-c2cccc3c2Sc2ccccc2S3)oc(N2CCOCC2)c1
How it was run: (§1)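 Five library-drug doses spaced by √10 were pinned onto vehicle-anchored 1536-well plates of lung cancer cell lines that had been kept overnight at 37 °C. Cells went 5 days without medium change, then were fixed, permeabilised and Hoechst-stained together, imaged at 4× and counted by MetaXpress. Viability is the ratio of treated-well to vehicle-well nuclei, taken as a median over plates. Plates required control CV below 25% and at least one doubling.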

Zibotentan = compound: COc1nc(C)cnc1NS(=O)(=O)c1cccnc1-c1ccc(-c2nnco2)cc1 [Zibotentan]
How it was run: as §1

[2] = compound: C1COCCN1C2=CC(=O)C3=C(O2)C(=CC=C3)C4=CC=CC5=C4SC6=CC=CC=C56
How it was run: as §1

PRIMA-1MET = compound: COCC1(CO)C(=O)C2CCN1CC2 [PRIMA-1MET]
How it was run: as §1

[3] = compound: CCN(CC)CCCCNc1ncc2cc(-c3cc(OC)cc(OC)c3)c(NC(=O)NC(C)(C)C)nc2n1
How it was run: as §1

Row | Cell Line | relative viability ([1]; 0.08 µM) | relative viability ([1]; 0.253 µM) | relative viability ([1]; 0.8 µM) | relative viability ([1]; 2.53 µM) | relative viability ([1]; 8 µM) | relative viability (Zibotentan; 0.08 µM) | relative viability (Zibotentan; 0.253 µM) | relative viability (Zibotentan; 0.8 µM) | relative viability (Zibotentan; 2.53 µM) | relative viability ([2]; 0.01 µM) | relative viability ([2]; 0.03162 µM) | relative viability ([2]; 0.1 µM) | relative viability ([2]; 0.3162 µM) | relative viability ([2]; 1 µM) | relative viability (PRIMA-1MET; 0.2 µM) | relative viability (PRIMA-1MET; 0.6325 µM) | relative viability (PRIMA-1MET; 2 µM) | relative viability (PRIMA-1MET; 6.325 µM) | relative viability (PRIMA-1MET; 20 µM) | relative viability ([3]; 0.01 µM) | relative viability ([3]; 0.03162 µM) | relative viability ([3]; 0.1 µM) | relative viability ([3]; 0.3162 µM) | relative viability ([3]; 1 µM)
1 | EKVX | 0.974 | 0.997 | 0.903 | 0.888 | 1.03 | 0.957 | 0.944 | 0.963 | 1.03 | 0.964 | 0.966 | 1.04 | 0.926 | 0.924 | 1.17 | 0.905 | 0.731 | 0.975 | 0.885 | 0.888 | 0.877 | 1.02 | 1.13 | 0.981
2 | NCI-H2170 | 0.946 | 1.05 | 1 | 0.911 | 0.991 | 0.997 | 0.992 | 0.968 | 1 | 0.969 | 1.02 | 0.973 | 0.947 | 0.965 | 1.02 | 0.848 | 0.971 | 1.07 | 0.946 | 1.08 | 0.976 | 1.02 | 1.05 | 1
3 | NCI-H2342 | 0.836 | 1.07 | 0.964 | 0.982 | 1.04 | 0.937 | 0.945 | 0.944 | 0.942 | 1.01 | 1.04 | 0.955 | 0.959 | 0.875 | 1.07 | 1.05 | 0.693 | 0.974 | 0.915 | 0.932 | 0.899 | 0.971 | 1.09 | 1.06
4 | NCI-H1395 | 0.816 | 0.863 | 1.02 | 0.81 | 1.23 | 1.02 | 0.819 | 0.901 | 1.16 | 0.944 | 0.987 | 0.888 | 1.15 | 0.822 | 0.925 | 0.676 | 0.866 | 0.964 | 0.551 | 0.731 | 0.894 | 0.979 | 0.869 | 0.652
5 | NCI-H1793 | 0.819 | 1.3 | 0.857 | 0.771 | 0.805 | 0.938 | 0.862 | 0.801 | 1.03 | 0.888 | 0.786 | 0.918 | 0.896 | 0.806 | 0.936 | 0.815 |  | 1.08 | 0.923 | 0.903 | 0.933 | 1.03 | 0.944 | 0.683
6 | NCI-H1563 | 0.973 | 0.988 | 0.933 | 0.989 | 0.986 | 1.04 | 0.716 | 1 | 1.09 | 0.972 | 1.01 | 0.944 | 0.975 | 0.977 | 1.05 | 0.968 | 0.806 | 1.06 | 0.457 | 1.03 | 0.95 | 1.04 | 0.928 | 0.729
7 | NCI-H1993 | 0.84 | 1.05 | 0.846 | 0.824 | 0.826 | 0.966 | 0.871 | 0.913 | 1.04 | 0.882 | 0.931 | 1.1 | 0.995 | 0.84 | 1 | 0.767 | 0.824 | 0.92 | 0.955 | 0.976 | 0.924 | 1.05 | 1.45 | 0.901
